These results are taken from BindingDB's records for doi:10.3109/14756366.2012.709242 (Anadolu University, 2013).

Each structure is given as a SMILES string. Bounds are passed on as bounds.

The first test deals with Acetylcholinesterase (Electrophorus electricus, UniProt O42275). Kind of test: Enzymatic Assay. To be noted: pH 8; 25 °C. The protocol: (§1) AChE or BChE solution (50 μL) and compound solution (50 μL), which is prepared in 2% DMSO at a concentration range of 10^−1-10^−6 mM, were added to 3.0 mL phosphate buffer (pH8 ± 0.1) and incubated at 25°C for 5 min. The reaction was started by adding (DTNB) (50 μL) and ATC (10 μL) to the enzyme-inhibitor mixture. […] As a control, an identical solution of the enzyme without the inhibitor was processed following the same protocol. The blank reading contained 3.0 mL buffer, 50 μL 2% DMSO, 50 μL DTNB and 10 μL substrate. All processes were assayed in triplicate.
Sequence of Acetylcholinesterase (O42275 whole entry): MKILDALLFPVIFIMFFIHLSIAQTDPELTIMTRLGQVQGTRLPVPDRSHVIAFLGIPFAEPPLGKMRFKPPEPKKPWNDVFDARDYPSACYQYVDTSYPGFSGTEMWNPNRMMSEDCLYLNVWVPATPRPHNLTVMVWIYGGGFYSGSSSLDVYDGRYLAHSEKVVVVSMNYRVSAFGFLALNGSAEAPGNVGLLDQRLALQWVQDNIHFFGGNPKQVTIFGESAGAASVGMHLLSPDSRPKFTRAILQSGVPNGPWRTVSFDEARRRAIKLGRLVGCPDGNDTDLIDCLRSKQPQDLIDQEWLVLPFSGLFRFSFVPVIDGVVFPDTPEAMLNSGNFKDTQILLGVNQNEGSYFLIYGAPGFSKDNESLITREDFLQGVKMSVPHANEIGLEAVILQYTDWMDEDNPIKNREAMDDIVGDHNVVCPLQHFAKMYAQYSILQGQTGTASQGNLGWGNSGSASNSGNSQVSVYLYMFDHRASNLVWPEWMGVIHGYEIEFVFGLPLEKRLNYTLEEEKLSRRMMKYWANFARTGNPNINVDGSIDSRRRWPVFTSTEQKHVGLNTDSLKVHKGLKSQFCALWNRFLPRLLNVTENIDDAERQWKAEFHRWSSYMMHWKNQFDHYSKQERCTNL
Regarding `Cc1nc(-c2ccc(NC(=O)CN3CCN(C4CCCCC4)CC3)cc2)cs1` [2-(4-Cyclohexylpiperazine-1-yl)-N-[4-(2-methylthiazol-4-yl)pheny])acetamide (5c)], it took 6.34 µM to reach half-maximal inhibition (IC50).
Same read-out and setting: with `CCN1CCN(CC(=O)Nc2ccc(-c3csc(C)n3)cc2)CC1` [2-(4-Ethylpiperazine-1-yl)-N-[4-(2-methylthiazol-4-yl)pheny])acetamide (5b)] the figure was 11.7 µM; with `Cc1nc(-c2ccc(NC(=O)CN3CCN(C)CC3)cc2)cs1` [2-(4-Methylpiperazine-1-yl)-N-[4-(2-methylthiazol-4-yl)phenyl]acetamide (5a)], 7.12 µM; with `Cc1nc(-c2ccc(NC(=O)CN3CCN(c4ccccc4)CC3)cc2)cs1` [2-(4-Phenylpiperazine-1-yl)-N-[4-(2-methylthiazol-4-yl)phenyl]acetamide (5d)], over 100 µM.
`Cc1nc(-c2ccc(NC(=O)CN3CCN(Cc4ccccc4)CC3)cc2)cs1` [2-[4-(2-Benzyl)piperazine-1-yl]-N-[4-(2-methylthiazol-4-yl)phenyl]acetamide (5o)] came in with a 50% inhibitory concentration (IC50) of 0.011 µM.
Take `Cc1nc(-c2ccc(NC(=O)CN3CCN(C(=O)c4ccco4)CC3)cc2)cs1` [2-[4-(2-Furoyl)piperazine-1-yl]-N-[4-(2-methylthiazol-4-yl)phenyl]acetamide (5p)]: the 50% inhibitory concentration (IC50) turned out to be 0.27 µM.
The same measure, in the same setting: with `COc1ccccc1N1CCN(CC(=O)Nc2ccc(-c3csc(C)n3)cc2)CC1` [2-[4-(2-Methoxyphenyl)piperazine-1-yl]-N-[4-(2-methylthiazol-4-yl)phenyl]acetamide (5m)] the figure was 8.42 µM.
`Cc1nc(-c2ccc(NC(=O)CN3CCN(c4ccccc4C)CC3)cc2)cs1` [2-[4-(2-Methylphenyl)piperazine-1-yl]-N-[4-(2-methylthiazol-4-yl)pheny]acetamide (5l)] showed a half-inhibitory concentration (IC50) of over 100 µM.
Consider `Cc1nc(-c2ccc(NC(=O)CN3CCN(c4ccccn4)CC3)cc2)cs1` [2-[4-(2-Pyridyl)piperazine-1-yl]-N-[4-(2-methylthiazol-4-yl)phenyl]acetamide (5n)], for which the concentration for half-maximal inhibition (IC50) was found to be 0.051 µM.
`COc1cccc(N2CCN(CC(=O)Nc3ccc(-c4csc(C)n4)cc3)CC2)c1` [2-[4-(3-Methoxyphenyl)piperazine-1-yl]-N-[4-(2-methylthiazol-4-yl)phenyl]acetamide (5k)] gave an IC50 of over 100 µM.
`Cc1cccc(N2CCN(CC(=O)Nc3ccc(-c4csc(C)n4)cc3)CC2)c1` [2-[4-(3-Methylphenyl)piperazine-1-yl]-N-[4-(2-methylthiazol-4-yl)phenyl]acetamide (5j)] showed a half-inhibitory concentration (IC50) of 88.4 µM.
Consider `Cc1nc(-c2ccc(NC(=O)CN3CCN(c4ccc(Cl)cc4)CC3)cc2)cs1` [2-[4-(4-Chlorophenyl)piperazine-1-yl]-N-[4-(2-methylthiazol-4-yl)phenyl]acetamide (5g)], for which the half-inhibitory concentration (IC50) is over 100 µM.
Compound `Cc1nc(-c2ccc(NC(=O)CN3CCN(c4ccc(F)cc4)CC3)cc2)cs1` [2-[4-(4-Florophenyl)piperazine-1-yl]-4-[4-(2-methylthiazol-4-yl)phenyl]acetamide (5h)] came in with a half-maximal inhibitory concentration (IC50) of over 100 µM.
`COc1ccc(N2CCN(CC(=O)Nc3ccc(-c4csc(C)n4)cc3)CC2)cc1` [2-[4-(4-Methoxyphenyl)piperazine-1-yl]-N-[4-(2-methylthiazol-4-yl)phenyl]acetamide (5f)] registered an IC50 of over 100 µM.
The compound `Cc1ccc(N2CCN(CC(=O)Nc3ccc(-c4csc(C)n4)cc3)CC2)cc1` [2-[4-(4-Methylphenyl)piperazine-1-yl]-N-[4-(2-methylthiazol-4-yl)phenyl]acetamide (5e)] came in with a half-inhibitory concentration (IC50) of over 100 µM.
Compound `Cc1nc(-c2ccc(NC(=O)CN3CCN(c4ccc([N+](=O)[O-])cc4)CC3)cc2)cs1` [2-[4-(4-Nitrophenyl)piperazine-1-yl]-N-[4-(2-methylthiazol-4-yl)pheny]acetamide (5i)] displayed a 50% inhibitory concentration (IC50) of over 100 µM.

The target in another test is Carboxylic ester hydrolase (Equus caballus, UniProt Q9N1N9). Kind of test: Enzymatic Assay.
Sequence of Carboxylic ester hydrolase (Q9N1N9 whole entry): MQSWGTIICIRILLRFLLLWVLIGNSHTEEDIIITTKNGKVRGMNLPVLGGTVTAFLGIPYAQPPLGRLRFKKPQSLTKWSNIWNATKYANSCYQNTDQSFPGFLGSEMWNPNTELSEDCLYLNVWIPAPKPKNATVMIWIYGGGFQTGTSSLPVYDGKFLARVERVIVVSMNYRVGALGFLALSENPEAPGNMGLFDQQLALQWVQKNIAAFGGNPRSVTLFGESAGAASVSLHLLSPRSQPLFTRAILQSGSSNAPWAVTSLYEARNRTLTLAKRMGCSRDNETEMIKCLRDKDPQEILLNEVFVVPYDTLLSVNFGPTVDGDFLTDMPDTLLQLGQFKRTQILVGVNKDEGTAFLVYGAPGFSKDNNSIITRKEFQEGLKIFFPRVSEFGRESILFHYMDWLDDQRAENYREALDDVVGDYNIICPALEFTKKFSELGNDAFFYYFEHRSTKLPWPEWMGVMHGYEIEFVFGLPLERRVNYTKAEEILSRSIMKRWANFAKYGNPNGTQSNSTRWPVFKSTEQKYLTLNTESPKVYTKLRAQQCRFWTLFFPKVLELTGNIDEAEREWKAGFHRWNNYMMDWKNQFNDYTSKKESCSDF
Conditions: not given
The protocol:
as §1
The compound `Cc1nc(-c2ccc(NC(=O)CN3CCN(C4CCCCC4)CC3)cc2)cs1` [2-(4-Cyclohexylpiperazine-1-yl)-N-[4-(2-methylthiazol-4-yl)pheny])acetamide (5c)] gave a 50% inhibitory concentration (IC50) of over 100 µM.
Take `CCN1CCN(CC(=O)Nc2ccc(-c3csc(C)n3)cc2)CC1` [2-(4-Ethylpiperazine-1-yl)-N-[4-(2-methylthiazol-4-yl)pheny])acetamide (5b)]: the IC50 was over 100 µM.
For the compound `Cc1nc(-c2ccc(NC(=O)CN3CCN(C)CC3)cc2)cs1` [2-(4-Methylpiperazine-1-yl)-N-[4-(2-methylthiazol-4-yl)phenyl]acetamide (5a)], the concentration for half-maximal inhibition (IC50) was over 100 µM.
Same read-out and setting: with `Cc1nc(-c2ccc(NC(=O)CN3CCN(c4ccccc4)CC3)cc2)cs1` [2-(4-Phenylpiperazine-1-yl)-N-[4-(2-methylthiazol-4-yl)phenyl]acetamide (5d)] the figure was over 100 µM; with `Cc1nc(-c2ccc(NC(=O)CN3CCN(Cc4ccccc4)CC3)cc2)cs1` [2-[4-(2-Benzyl)piperazine-1-yl]-N-[4-(2-methylthiazol-4-yl)phenyl]acetamide (5o)], over 100 µM; with `Cc1nc(-c2ccc(NC(=O)CN3CCN(C(=O)c4ccco4)CC3)cc2)cs1` [2-[4-(2-Furoyl)piperazine-1-yl]-N-[4-(2-methylthiazol-4-yl)phenyl]acetamide (5p)], over 100 µM.
Same read-out and setting: to `COc1ccccc1N1CCN(CC(=O)Nc2ccc(-c3csc(C)n3)cc2)CC1` [2-[4-(2-Methoxyphenyl)piperazine-1-yl]-N-[4-(2-methylthiazol-4-yl)phenyl]acetamide (5m)] belongs over 100 µM.
`Cc1nc(-c2ccc(NC(=O)CN3CCN(c4ccccc4C)CC3)cc2)cs1` [2-[4-(2-Methylphenyl)piperazine-1-yl]-N-[4-(2-methylthiazol-4-yl)pheny]acetamide (5l)]: the half-inhibitory concentration (IC50) is over 100 µM.
The same measure, in the same setting: to `Cc1nc(-c2ccc(NC(=O)CN3CCN(c4ccccn4)CC3)cc2)cs1` [2-[4-(2-Pyridyl)piperazine-1-yl]-N-[4-(2-methylthiazol-4-yl)phenyl]acetamide (5n)] belongs over 100 µM.
As to `COc1cccc(N2CCN(CC(=O)Nc3ccc(-c4csc(C)n4)cc3)CC2)c1` [2-[4-(3-Methoxyphenyl)piperazine-1-yl]-N-[4-(2-methylthiazol-4-yl)phenyl]acetamide (5k)], the half-maximal inhibitory concentration (IC50) is over 100 µM.
Same read-out and setting: to `Cc1cccc(N2CCN(CC(=O)Nc3ccc(-c4csc(C)n4)cc3)CC2)c1` [2-[4-(3-Methylphenyl)piperazine-1-yl]-N-[4-(2-methylthiazol-4-yl)phenyl]acetamide (5j)] belongs over 100 µM; to `Cc1nc(-c2ccc(NC(=O)CN3CCN(c4ccc(Cl)cc4)CC3)cc2)cs1` [2-[4-(4-Chlorophenyl)piperazine-1-yl]-N-[4-(2-methylthiazol-4-yl)phenyl]acetamide (5g)], over 100 µM; to `Cc1nc(-c2ccc(NC(=O)CN3CCN(c4ccc(F)cc4)CC3)cc2)cs1` [2-[4-(4-Florophenyl)piperazine-1-yl]-4-[4-(2-methylthiazol-4-yl)phenyl]acetamide (5h)], over 100 µM.
The same measure, in the same setting: to `COc1ccc(N2CCN(CC(=O)Nc3ccc(-c4csc(C)n4)cc3)CC2)cc1` [2-[4-(4-Methoxyphenyl)piperazine-1-yl]-N-[4-(2-methylthiazol-4-yl)phenyl]acetamide (5f)] belongs over 100 µM.
For the compound `Cc1ccc(N2CCN(CC(=O)Nc3ccc(-c4csc(C)n4)cc3)CC2)cc1` [2-[4-(4-Methylphenyl)piperazine-1-yl]-N-[4-(2-methylthiazol-4-yl)phenyl]acetamide (5e)], the IC50 was over 100 µM.
Still for that read-out and setting: to `Cc1nc(-c2ccc(NC(=O)CN3CCN(c4ccc([N+](=O)[O-])cc4)CC3)cc2)cs1` [2-[4-(4-Nitrophenyl)piperazine-1-yl]-N-[4-(2-methylthiazol-4-yl)pheny]acetamide (5i)] belongs over 100 µM.

As usually defined, the IC50 is the concentration that gives 50% inhibition. Read a high IC50 as weaker potency in that assay.
